Consider 6 molecules from paper PMC11678782, “The Antioxidant and Anti-Inflammatory Activities of the Methanolic Extract, Fractions, and Isolated Compounds from Eriosema montanum Baker f. (Fabaceae)” (Molecules, 2024).

In assay [1] the test system is LPS-activated J774.A1 cells. Details: method as in PMID 17637182. Conditions: cited from earlier work.
Assay [2] is described as follows: ABTS radical scavenging assay. Conditions: 5 min, 734 nm. The protocol:
(§1) Three in vitro antioxidant assays, namely, 2,2′-azinobis-(3-ethylbenzothiazoline-6-sulfonic acid (ABTS), 2,2′-diphenyl-1-picrylhydrazyl (DPPH), and ferric ion reducing antioxidant power (FRAP), were used to determine the antioxidant activity according to methods previously reported. Ascorbic acid (0 to 200 μg/mL) was used as positive control in these experiments, and Formula (1) below allowed us to evaluate the percentage of radical scavenging capacity. The inhibitory concentration (IC50) values were evaluated by plotting a nonlinear graph of percentage radical scavenging capacity versus logarithm of tested concentrations. Scavenging capacity (%) = [(A0 − A1)/A0] × 100(1) where A0 is absorbance of negative control, and A1 is absorbance of extract with ABTS^•+ radical cation.
Specifically, 2.45 mM of potassium persulfate and 7 mM of ABTS solution were dissolved in methanol and combined to create the ABTS^•+ radical cation, which was stored at 25 °C for a minimum of 16 h. At 734 nm, the absorbance of the generated ABTS^•+ was measured using a SpectraMax iD3 multi-mode microplate reader (Molecular Devices, San Jose, CA, USA) and calibrated to 0.70 ± 0.02. After carefully diluting 40 μL of EMME (1 mg/mL) with methanol and adding 160 μL of (ABTS^•+) radical cation, the 96-well microtiter plate was left to sit at 25 °C in the dark for five minutes. Using a SpectraMax iD3 multi-mode microplate reader, the absorbance values were measured at 734 nm against the blank (extract plus methanol without ABTS^•+). A nonlinear curve representing the percentage of ABTS^•+ scavenging capacity vs. a logarithm of tested concentrations was then plotted to determine the inhibitory concentration (IC50) values.
(§2) The IC50 values were calculated for each biological experiment using the nonlinear regression curve of the % inhibitory activity versus the logarithm (log10) of the various tested concentrations using GraphPad Prism 6.0 software (GraphPad Software, Inc., San Diego, CA, USA). The data are shown as mean ⁱ SEM (standard error of the mean) values, and all biological experiments were conducted in triplicate (n = 3). The statistical analysis was conducted using GraphPad Prism 6.0 software (GraphPad Software, Inc., San Diego, CA, USA). One-way analysis of variance (ANOVA) was used to compare the data across the tested samples and/or controls, and Student–Newman–Keuls or Dunnett’s tests were then performed. A p-value of less than 0.05 indicated a significant difference in the results.

Assay [3] in a line: DPPH radical scavenging assay. Conditions: 30 min, 517 nm. The method, then:
as §1
To be able to determine the DPPH^• scavenging capacity of EMME, we performed a serial dilution of 40 μL of the sample (1 mg/mL) with methanol on a 96-well microtiter plate, with 160 μL of solution of DPPH^• thereafter (25 μg/mL). The incubation at 25 °C in the dark was performed after 30 min, with the absorbance values measured at 517 nm on a SpectraMax iD3 multi-mode microplate against a blank (extract plus methanol without DPPH^•). […]. Methanol with DPPH^• served as the negative control. Using Formula (1), the DPPH scavenging capability was calculated at the measured concentrations above, and as previously enumerated, the IC50 values were also calculated, as indicated in the previously described procedure.
as §2

Assay [4] can be described thus: Ferric reducing antioxidant power (FRAP) assay. Conditions: relative to 200 µg/mL gallic acid, 700 nm. The method, then: as §1
The generally used and almost standard method for performing the FRAP test is that developed by Benzie and Strain [15]. Indeed, the antioxidant power is determined in a colorimetric reaction linked to redox in which an intense blue-colored ferroustripyridyltriazine (Fe^2+-TPTZ) complex is obtained via reduction at a low pH of ferrictripyridyltriazine (Fe^3+-TPTZ). The incubation of a quantity of 50 μL of EMME (1.56 to 200 μg/mL) or 200 μg/mL of gallic acid (Merck, Lethabong, South Africa) on a 96-well plate was carried out with 50 μL of 1% potassium ferricyanide (prepared in 0.2 M of sodium phosphate buffer, pH 6.6) for 30 min at 50 °C. Then, 50 μL of 10% trichloroacetic acid (TCA), 40 μL of distilled water, and 10 μL of 0.1% ferric chloride were added, respectively. The absorbance values were recorded on a blank (extract plus sodium phosphate buffer) at 700 nm on a SpectraMax iD3 multi-mode microplate reader (Molecular Devices, San Jose, CA, USA); the FRAP activity was indicated as inhibition percentage of 200 μg/mL of gallic acid.
as §2

The test system of assay [5] is LPS-stimulated RAW 264.7 cells. The experiment in a line: ROS production in LPS-stimulated RAW 264.7 cells (DCFH-DA). The class given is cell-based, murine. As to conditions: 25, 50, 100 µg/mL, 2 h pre-treatment, 200 ng/mL LPS 24 h. The method, then: For ROS production inhibition, on a black/clear bottom 96-well plate, RAW 264.7 cells were seeded at a density of 10,000 cells per well. The cells were then pre-treated with non-toxic quantities of EMME and genistin (5) at 25, 50, and 100 µg/mL for two hours and then exposed to 200 ng/mL of LPS for twenty-four hours under standard culture conditions. Thereafter, the cells were washed twice with PBS, followed by the addition of 100 µL of fresh FBS-free medium containing 10 µM of the fluorescent probe 2′,7′-dichlorodihydrofluorescein diacetate (DCFH-DA) (Sigma-Aldrich, Darmstadt, Germany). After 30 min of additional incubation under usual culture conditions, PBS was added to the plate in place of the fluorescent probe. The fluorescence of the cells was measured using a SpectraMax iD3 multi-mode microplate reader (Molecular Devices, San Jose, CA, USA) at 485 nm (excitation) and 535 nm (emission). The percentage of cells treated with DMSO 0.5% without LPS, known as the negative control, was used to express the intracellular ROS levels. Using an excitation/emission filter (480/535 nm) on a 40× objective, images were taken with a camera (Flexacam C1, Leica Microsystems, Wetzlar, Germany) attached to a fluorescence microscope (Leica Microsytems GmbH, Wetzlar, Germany).

The subject of assay [6] is LPS-stimulated RAW264.7 cells. Also on record: method as in PMID 33202848, PMID 29471006. Conditions: cited from earlier work.
For assay [7], the target named is T1, soybeans 15-LOX (Glycine max, UniProt P08170).
T1 construct: purchased Merck, Darmstadt, Germany
T1 sequence (P08170 1-839): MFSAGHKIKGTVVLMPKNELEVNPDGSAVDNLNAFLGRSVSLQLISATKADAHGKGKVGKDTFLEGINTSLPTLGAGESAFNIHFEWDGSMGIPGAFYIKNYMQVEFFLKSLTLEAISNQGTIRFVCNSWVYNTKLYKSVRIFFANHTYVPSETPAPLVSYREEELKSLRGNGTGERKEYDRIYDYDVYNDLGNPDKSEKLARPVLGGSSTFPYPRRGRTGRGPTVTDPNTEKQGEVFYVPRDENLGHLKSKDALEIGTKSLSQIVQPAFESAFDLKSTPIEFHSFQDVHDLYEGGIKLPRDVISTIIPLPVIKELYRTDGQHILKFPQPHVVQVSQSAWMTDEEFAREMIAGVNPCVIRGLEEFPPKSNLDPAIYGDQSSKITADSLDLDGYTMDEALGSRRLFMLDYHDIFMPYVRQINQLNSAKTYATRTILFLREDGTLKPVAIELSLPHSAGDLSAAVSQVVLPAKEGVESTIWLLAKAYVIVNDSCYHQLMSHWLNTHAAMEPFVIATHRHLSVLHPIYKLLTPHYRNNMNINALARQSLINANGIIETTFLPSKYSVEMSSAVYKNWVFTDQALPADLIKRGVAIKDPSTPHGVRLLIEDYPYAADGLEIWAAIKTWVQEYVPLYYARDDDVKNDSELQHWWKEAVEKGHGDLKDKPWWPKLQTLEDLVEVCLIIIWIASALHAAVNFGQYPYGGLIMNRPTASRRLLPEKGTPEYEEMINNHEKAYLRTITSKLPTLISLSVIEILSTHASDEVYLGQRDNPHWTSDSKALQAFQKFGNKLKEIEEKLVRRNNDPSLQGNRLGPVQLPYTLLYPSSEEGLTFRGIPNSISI
The experiment in a line: 15-lipoxygenase enzyme inhibitory assay (FOX). It is filed as biochemical, soybean. The protocol:
The method developed by Pinto et al. was used to determine the effect of the tested samples on 15-LOX inhibitory activity, with slight modifications to the 96-well microtitre plate format. Using 20 µL of tested samples at varying concentrations (3.90 to 500 µg/mL), the soybeans 15-LOX (Merck, Darmstadt, Germany) (40 µL, 200 UI/mL) were incubated at 25 °C for 5 min. The plate was then incubated at 25 °C for 20 min in the dark; after, 40 µL of linoleic acid (final concentration, 140 μM) produced in Tris-HCl buffer (50 mM, pH 7.4) was added. A total of 100 µL of the FOX reagent—sulfuric acid (30 mM), xylenol orange (100 μM), and ferrous II) sulfate (100 μM) mixed in methanol/water (9:1)—was added to terminate the test. A SpectraMax iD3 multi-mode microplate reader (Molecular Devices, San Jose, CA, USA) was used to measure the absorbance at 560 nm following 30 min of incubation at 25 °C in the dark. Gallic acid (0.78 to 100 µg/mL) was employed as the usual inhibitor of 15-LOX, while DMSO at 5% (v/v) served as the negative control. With the exception of adding the substrate after the FOX reagent, the blanks were prepared exactly like the tested samples. Formula (2) below was used to compute the 15-LOX inhibitory activity. 15 LOX inhibitory activity (%) = 100 − [(A0 − A1) − (A2 − A1)] × 100(2) where A0 is absorbance of test samples, A1 is absorbance of blank, and A2 is absorbance of negative control (DMSO 5%).
as §2

Assay [8] relates to LPS-stimulated RAW 264.7 cells. The experiment in a line: NO production inhibition in LPS-stimulated RAW 264.7 cells (Griess). It is filed as cell-based, murine. Conditions: Mus musculus, RAW264.7; RAW 264.7, 2 h pre-treatment, 500 ng/mL LPS 24 h. The method, then: […] in a humidified environment containing 5% CO2 and 95% air. For NO and ROS production inhibition assays, the cytotoxic effect of tested samples at 100 µg/mL after 24 h of exposure was initially measured on RAW 264.7 cells (10,000 cells per well) using the standard MTT assay. Then, for NO production inhibition assay, RAW 264.7 cells were pre-treated with tested samples at 100 µg/mL for 2 h followed by addition of culture medium containing 500 ng/mL of lipopolysaccharide (LPS) (Merck, Darmstadt, Germany). After 24 h of incubation under standard cell-culture conditions, NO released was measured in cell supernatants using the Griess reagent (Sigma Aldrich, Darmstadt, Germany), and a SpectraMax iD3 multi-mode microplate reader (Molecular Devices, San Jose, CA, USA) was used to capture the absorbance readings at 540 nm. The ability of each tested material to reduce nitric oxide synthesis by LPS-stimulated RAW 264.7 macrophages in comparison to the negative control (cells treated with DMSO at 0.5% and LPS without extract) was used to calculate the percentage of NO production inhibition.
as §2

Assay [9] concerns prostaglandins, iNOS, pro-inflammatory cytokines, ROS, NF-κB signaling pathway. Also on record: method as in PMID 35140617, PMID 32115816. As to conditions: down-regulation of prostaglandins; cited from earlier work.

Values after ≈ are worked out from the molar mass of the structure shown.

For the molecule `O=c1cc(-c2ccc(O)cc2)oc2cc(O[C@@H]3O[C@H](CO)[C@@H](O)[C@H](O)[C@H]3O[C@@H]3OC[C@](O)(CO)[C@H]3O)cc(O)c12` [Apiin], the “Inhibitory activity on NO production and iNOS expression” value in assay [1] is given as “significant inhibitory activity”.
Take `O=C1O[C@H]([C@@H](O)CO)C(O)=C1O` [Ascorbic acid, reference compound]: the “IC50 ABTS” value in [2] is 1.28 ± 0.81 µg/mL (≈ 7.27 µM). In addition, the “IC50 DPPH” value in assay [3] stood at 4.08 ± 1.04 µg/mL (≈ 23.2 µM). In addition, the “IC50 FRAP” value in assay [4] is 23.68 ± 2.89 µg/mL (≈ 134 µM). For the same molecule, the “Inhibition of LPS-induced ROS production” value in assay [5] was “significantly inhibit”.
As to `C[C@@H]1O[C@@H](O[C@H]2C(=O)c3c(O)cc(O)cc3O[C@@H]2c2ccc(O)c(O)c2)[C@H](O)[C@H](O)[C@H]1O` [Astilbin], the “Inhibition of IL-1β, IL-6, NO production and NF-κB-p65 expression” value in assay [6] is “significantly inhibiting”.
As a reminder, the IC50 is the concentration that inhibits the measured activity by half. Molecule `O=C(O)c1cc(O)c(O)c(O)c1` [Gallic acid, reference compound] showed an IC50 in assay [7] of 145 µM.
For the molecule `O=c1c(O)c(-c2ccc(O)c(O)c2)oc2cc(O)cc(O)c12` [Quercetin, reference compound], the IC50 in assay [8] was 8.93 ± 0.4 µg/mL (≈ 29.5 µM).
For `O=c1c(-c2ccc(O)cc2)coc2cc(O)cc(O)c12` [genistein], the Anti-inflammatory activities result in assay [9] is on record as “strong anti-inflammatory activities”.
